PMC6225122 (2018)
In brackets after ≈: the same amount, converted by molar mass.

Experiments:
[1] = test system: aptamer 28 (DNA, aptamer) ACGCATAGGATGCAACAACGCGAATGCCACCAATTCGTGCTTGTCGTGTCCTATGCGT; assay: AuNP colorimetric specificity assay (A620/A520); details: 0.9 M NaCl added after binding; 1 μg/mL compound, 0.4 μM aptamer, room temperature, 30 min
[2] = test system: aptamer 47 (DNA, aptamer) ACGCATAGGTCATGCCAAGCTGTACACCGTCCTGGCCTGGTTGGGATGTCCTATGCGT; assay: AuNP colorimetric specificity assay (A620/A520); details: 0.9 M NaCl added after binding; 1 μg/mL compound, 0.4 μM aptamer, room temperature, 30 min
[3] = test system: aptamer 64 (DNA, aptamer) ACGCATAGGTACACCACATCGGATCGTAATGCGTATGTGACTCAGTGTGCCTATGCGT; assay: AuNP colorimetric specificity assay (A620/A520); details: 0.9 M NaCl added after binding; 1 μg/mL compound, 0.4 μM aptamer, room temperature, 30 min
[4] = test system: aptamer 78 (DNA, aptamer) ACGCATAGGGTACGCCACAGATCGACCTCTGGTTGGTCCTGTTGTGTGGCCTATGCGT; assay: AuNP colorimetric specificity assay (A620/A520); details: 0.9 M NaCl added after binding; 1 μg/mL compound, 0.4 μM aptamer, room temperature, 30 min
[5] = test system: aptamer 132 (DNA, aptamer) ACGCATAGGGACCATGCGCAGTGAACTTGGTTCTTTGTGCTCATGTGTGCCTATGCGT; assay: AuNP colorimetric specificity assay (A620/A520); details: 0.9 M NaCl added after binding; 1 μg/mL compound, 0.4 μM aptamer, room temperature, 30 min
[6] = test system: aptamer 154 (DNA, aptamer) ACGCATAGGGCATCACACATGTCCTTGCCATTGCTGACTTGTTTGGTGTCCTATGCGT; assay: AuNP colorimetric specificity assay (A620/A520); details: 0.9 M NaCl added after binding; 1 μg/mL compound, 0.4 μM aptamer, room temperature, 30 min
[7] = test system: aptamer 28 (DNA, aptamer) ACGCATAGGATGCAACAACGCGAATGCCACCAATTCGTGCTTGTCGTGTCCTATGCGT; assay: circular dichroism; details: binding buffer: 8 g/L NaCl, 0.2 g/L KCl, 0.1 g/L MgCl2·6H2O, 0.1 g/L CaCl2; 1 μM aptamer, 10 μM CBL, room temperature, 30 min
[8] = test system: aptamer 47 (DNA, aptamer) ACGCATAGGTCATGCCAAGCTGTACACCGTCCTGGCCTGGTTGGGATGTCCTATGCGT; assay: circular dichroism; details: binding buffer: 8 g/L NaCl, 0.2 g/L KCl, 0.1 g/L MgCl2·6H2O, 0.1 g/L CaCl2; 1 μM aptamer, 10 μM CBL, room temperature, 30 min
[9] = test system: aptamer 64 (DNA, aptamer) ACGCATAGGTACACCACATCGGATCGTAATGCGTATGTGACTCAGTGTGCCTATGCGT; assay: circular dichroism; details: binding buffer: 8 g/L NaCl, 0.2 g/L KCl, 0.1 g/L MgCl2·6H2O, 0.1 g/L CaCl2; 1 μM aptamer, 10 μM CBL, room temperature, 30 min
[10] = test system: aptamer 78 (DNA, aptamer) ACGCATAGGGTACGCCACAGATCGACCTCTGGTTGGTCCTGTTGTGTGGCCTATGCGT; assay: circular dichroism; details: binding buffer: 8 g/L NaCl, 0.2 g/L KCl, 0.1 g/L MgCl2·6H2O, 0.1 g/L CaCl2; 1 μM aptamer, 10 μM CBL, room temperature, 30 min
[11] = test system: aptamer 132 (DNA, aptamer) ACGCATAGGGACCATGCGCAGTGAACTTGGTTCTTTGTGCTCATGTGTGCCTATGCGT; assay: circular dichroism; details: binding buffer: 8 g/L NaCl, 0.2 g/L KCl, 0.1 g/L MgCl2·6H2O, 0.1 g/L CaCl2; 1 μM aptamer, 10 μM CBL, room temperature, 30 min
[12] = test system: aptamer 154 (DNA, aptamer) ACGCATAGGGCATCACACATGTCCTTGCCATTGCTGACTTGTTTGGTGTCCTATGCGT; assay: circular dichroism; details: binding buffer: 8 g/L NaCl, 0.2 g/L KCl, 0.1 g/L MgCl2·6H2O, 0.1 g/L CaCl2; 1 μM aptamer, 10 μM CBL, room temperature, 30 min
[13] = test system: aptamer 28 (DNA, aptamer) ACGCATAGGATGCAACAACGCGAATGCCACCAATTCGTGCTTGTCGTGTCCTATGCGT; assay: AuNP colorimetric titration (A520); details: 0.9 M NaCl (10 µL) added after binding; aptamer 0-1600 nM titrated against 1 μg/mL CBL, water, 30 min, room temperature
[14] = test system: aptamer 47 (DNA, aptamer) ACGCATAGGTCATGCCAAGCTGTACACCGTCCTGGCCTGGTTGGGATGTCCTATGCGT; assay: AuNP colorimetric titration (A520); details: 0.9 M NaCl (10 µL) added after binding; aptamer 0-1600 nM titrated against 1 μg/mL CBL, water, 30 min, room temperature
[15] = test system: aptamer 64 (DNA, aptamer) ACGCATAGGTACACCACATCGGATCGTAATGCGTATGTGACTCAGTGTGCCTATGCGT; assay: AuNP colorimetric titration (A520); details: 0.9 M NaCl (10 µL) added after binding; aptamer 0-1600 nM titrated against 1 μg/mL CBL, water, 30 min, room temperature
[16] = test system: aptamer 78 (DNA, aptamer) ACGCATAGGGTACGCCACAGATCGACCTCTGGTTGGTCCTGTTGTGTGGCCTATGCGT; assay: AuNP colorimetric titration (A520); details: 0.9 M NaCl (10 µL) added after binding; aptamer 0-1600 nM titrated against 1 μg/mL CBL, water, 30 min, room temperature
[17] = test system: aptamer 132 (DNA, aptamer) ACGCATAGGGACCATGCGCAGTGAACTTGGTTCTTTGTGCTCATGTGTGCCTATGCGT; assay: AuNP colorimetric titration (A520); details: 0.9 M NaCl (10 µL) added after binding; aptamer 0-1600 nM titrated against 1 μg/mL CBL, water, 30 min, room temperature
[18] = test system: aptamer 154 (DNA, aptamer) ACGCATAGGGCATCACACATGTCCTTGCCATTGCTGACTTGTTTGGTGTCCTATGCGT; assay: AuNP colorimetric titration (A520); details: 0.9 M NaCl (10 µL) added after binding; aptamer 0-1600 nM titrated against 1 μg/mL CBL, water, 30 min, room temperature
[19] = test system: 5′-biotin aptamer 47 (DNA, aptamer) ACGCATAGGTCATGCCAAGCTGTACACCGTCCTGGCCTGGTTGGGATGTCCTATGCGT; assay: indirect competitive enzyme-linked aptamer assay (ic-ELAA); details: binding buffer: 8 g/L NaCl, 0.2 g/L KCl, 0.1 g/L MgCl2·6H2O, 0.1 g/L CaCl2; competition with coated CBL-BSA; 1 μM aptamer (50 μL), 37 °C, 1 h

SMILES	binding [1]	binding [2]	binding [3]	binding [4]	binding [5]	binding [6]	binding [7]	binding [8]	binding [9]	binding [10]	binding [11]	binding [12]	Kd [13]	Kd [14]	Kd [15]	Kd [16]	Kd [17]	Kd [18]	IC50 [19]
CC(C)(C)NCC(O)c1cc(O)cc(O)c1 (stereo not shown)	no	no	no	no	no	no	–	–	–	–	–	–	–	–	–	–	–	–	–
CC(C)(C)NCC(O)c1cc(Cl)c(N)c(Cl)c1 (stereo not shown)	–	–	–	–	–	–	yes	yes	yes	yes	yes	yes	321 ± 104.5 nM	42.17 ± 8.98 nM	123.3 ± 14.28 nM	201.1 ± 42.42 nM	221.6 ± 41.87 nM	268.8 ± 40.43 nM	5.44 ± 0.01 ng/mL (≈ 0.0196 µM)
CC(CCc1ccc(O)cc1)NCC(O)c1ccc(O)cc1 (stereo not shown)	no	no	no	no	no	no	–	–	–	–	–	–	–	–	–	–	–	–	–
CC(C)(C)NCC(O)c1ccc(O)c(CO)c1 (stereo not shown)	no	no	no	no	no	no	–	–	–	–	–	–	–	–	–	–	–	–	–
